Results published in patent US5276034A, “Substituted imidazolyl-alkyl-piperazine and -diazepine derivatives” (Syntex Pharmaceutical Ltd., priority 1991, dated 1994).

Experiments:
[1] = system: barium-stimulated intestinal transit of the charcoal meal; experiment: Irritable bowel syndrome: intestinal transit of a charcoal meal in conscious mice, barium chloride stimulated; assay type: in vivo, mouse
Method: (§1) The test used is a modification of the method of Macht and Barba-Gose, J. Amer. Pharm. […] In the present model, intestinal transit in conscious mice (15-20 g) was accelerated with an oral dose of barium chloride (300 mg/kg) administered at the same time as the charcoal meal. The animals were sacrificed 10 minutes later and the distance travelled by the charcoal measured. 1-diphenyl-methyl-4-[(2-(4-methylphenyl)-5-methylimidazol-4-yl)methyl]-piperazine trihydrochloride was given as a 15 minute oral pre-treatment and its effect on non-stimulated or barium-stimulated intestinal transit of the charcoal meal was calculated.

[2] = in vivo; cited from earlier work
[3] = system: male normotensive rats (urine volume, sodium and potassium excretion); experiment: Diuresis in male normotensive rats; assay type: in vivo, rat
Method: Male normotensive rats weighing 290-380 g were divided into four groups of seven animals. All animals were fasted and deprived of water overnight. The following morning, each group of rats was hydrated with deionized water ([…]. p.o.) 45 minutes prior to the administration of vehicle (1% polysorbate 80 in deionized water) or 1-diphenyl-methyl-4-[(2-(4-methylphenyl)-5-methylimidazol-4-yl)methyl]-piperazine trihydrochloride at doses of 5, 15, or 30 mg/kg p.o. Fifteen minutes post-drug, the animals were saline loaded (30 ml/kg, p.o. 0.9% sodium chloride) and placed individually in metabolism cages. Urine was collected at 1, 3, and 6 hour intervals post-dose. Urine volumes were measured and sodium and potassium levels were determined by flame photometry. Differences between control and treated values were evaluated by one way analysis of variance.

[4] = system: abnormal neurones in brain areas after four vessel occlusion; experiment: Ten minute model of four vessel occlusion with 72 hour survival; assay type: in vivo; conditions: 100 mg/kg i.a. 5 min plus 500 mg/kg i.p. 15 min post-ischaemia
Method: B. Ten minute Model of four vessel occlusion with 72 hour survival.
The procedure used was that of Alps, et al., Neurology, 37, 809 (1987). The object of this assay was to count abnormally appearing cells in 7 different areas and exymers as a percentage of the total area counted. The number of counts per structure depended upon size, e.g., cortical areas had double the number of other areas. Mean whole brain scores were also determined for percent abnormalities. Normal brains were also used to account for incidence of artifact changes attributed to the fixation process.
. In this case 6 animals were used with the results shown in the below table.
2) Untreated (saline) ischemic controls--The animals were subjected to 10 minutes of bilateral common cartoid artery occlusion (with previously surgically sealed vertebral arteries) with 72 hours survival. The microscopic sections were prepared as in 1) above. In this case 11 animals were used with the results shown in the below table.
Parenteral, post-ischaemia treated--The animals were given 100 mg/kg i.a. of 1-diphenyl-methyl-4-[(2-(4-methylphenyl)-5-methylimidazol-4-yl)-methyl]piperazine trihydrochloride 5 minutes post-ischaemia plus 500 mg/kg i.p. of 1-diphenyl-methyl-4-[(2-(4-methylphenyl)-5-methylimidazol-4-yl)-methyl]piperazine trihydrochloride 15 minutes post-ischaemia. The microscopic sections were prepared according to 1) above. In this case 5 animals were used with the results shown in the below table.

[5] = system: pentylenetetrazole-induced seizures and mortality; experiment: Effect on pentylenetetrazole-induced seizures and mortality in the mouse; assay type: in vivo, mouse (male CDI); conditions: 500 mg/kg i.p., pentylenetetrazole 100 mg/kg s.c.
Method: C. The effect of 1-diphenyl-methyl-4-[(2-(4-methylphenyl)-5-methylimidazol-4-yl)-methyl]piperazine trihydrochloride on pentylenetetrazole-induced seizures and mortality in the mouse.
The procedure used was that described in Allely, and Alps, Br. J. Phramacol. Proc. Suppl., 92, 605P (1987). Groups of 20 or more (see n in table) male CDI mice were predosed with 500 mg/kg i.p. of 1-diphenyl-methyl-4-[(2-(4-methylphenyl)-5-methylimidazol-4-yl)methyl]piperazine trihydrochloride at one of three dosing schedules--A (15minutes), B (60 minutes), or C (3 days b.i.d. plus 15 minutes on 4th day)--before challenging with 100 mg/kg of pentylenetetrazole s.c. The animals were then observed for a 30 minute period and the occurrence of clonic or tonic seizures or death noted. Statistical analysis was by a Chi squared test of association. Results compared against saline treated animals are shown in the below table.

[6] = system: abnormal neurones in brain after bilateral common carotid artery occlusion; experiment: Five minute model of bilateral common carotid artery occlusion in the gerbil with 72 hour survival; assay type: in vivo; conditions: then b.i.d. for 72 h
Method: In vivo protective effects of the compounds of this invention against the deleterious effects of cerebral ischemia are determined by use of the standard gerbil brain ischemia model.
A. Five minute model of bilateral common carotid artery occlusion in the gerbil with 72 hour survival
2) Sham-operated animals--The animals were anesthetized with a halothane-nitrous oxide-oxygen mixture. […] The microscopic sections were prepared and counted as in 1) above. In this case 7 animals were used and 100 microscopic fields were counted.
3) Untreated ischemic controls--In this case animals were subjected to 5 minute bilateral carotid artery occlusion with 72 hour survival. The microscopic sections were prepared and counted as in 1) above. In this case 12 animals were used and 120 microscopic fields were counted.
(§2) 4) Parenteral, 15 minute pre-ischemia treated--The animals were given 500 mg/kg i.p. of 1-diphenylmethyl-4-[(2-(4-methylphenyl)-5-methylimidazol-4-yl)methyl]piperazine trihydrochloride 15 minutes prior to ischaemic insult. The treatment was repeated b.i.d. for 72 hours. The microscopic sections were prepared and counted as in 1) above. In this case 10 animals were used and 100 microscopic fields were counted.
as §2, with “5) Parenteral” for “4) Parenteral,”, “pre-ischemic” for “pre-ischemia”, “250” for “500”, “Treatment” for “The treatment”, “6” for “10”, “60” for “100”
as §2, with “6) Parenteral” for “4) Parenteral,”, “post-ischemia” for “pre-ischemia”, “after” for “prior to”, “9” for “10”, “90” for “100”
7) Oral, pre-ischemia treated--The animals were given 5 mg/kg p.o. b.i.d. of 1-diphenyl-methyl-4-[(2-(4-methylphenyl)-5-methylimidazol-4-yl)-methyl]piperazine trihydrochloride for 3 days and on the 4th day at 1 hour pre-ischaemic. Treatment was repeated b.i.d. for 72 hours. The microscopic sections were prepared and counted as in 1) above. In this case 11 animals were used and 110 microscopic fields were counted.
8) Oral, pre-ischemia treated--The animals were given 10 mg/kg p.o. of 1-diphenyl-methyl-4-[(2-(4-methylphenyl)-5-methylimidazol-4-yl)-methyl]piperazine trihydrochloride for 3 days and on 4th day at 1 hour pre-ischaemia.Treatment was repeated b.i.d. for 72 hours. The microscopic sections were prepared and counted as in 1) above. In this case 9 animals were used and 90 microscopic fields were counted.

[7] = system: non-stimulated intestinal transit of the charcoal meal; experiment: Intestinal transit of a charcoal meal in conscious mice, non-stimulated; assay type: in vivo; conditions: Mus musculus, po, 15 min pre-treatment, read-out: % Inhibition Normal Transition
Method: as §1

[8] = schedule C (3 days b.i.d. plus 15 minutes on 4th day), n=24

## [Ba+2].[Cl-].[Cl-] [barium chloride, reference compound]
[1]; barium chloride 300 mg/kg oral, effect of Ba^+2 on transit
  % Change Ba^+2: +93%

## Clc1ccccc1CN1CCc2sccc2C1 [ticlopidine]
[2]
  risk of a second ischemic event: demonstrated to reduce the risk of a second ischemic event

## Cc1ccc(-c2nc(CN3CCN(C(c4ccccc4)c4ccccc4)CC3)c(C)[nH]2)cc1.Cl.Cl.Cl [1-diphenylmethyl-4-[(2-(4-methylphenyl)-5-methylimidazol-4-yl)methyl]piperazine trihydrochloride]
[3]; 5 mg/kg p.o., 1 hour
  Potassium ion, Cumulative: .04 ± .03 mEq
  Sodium ion, Cumulative: .07 ± .06 mEq
  Urine Volume, Cumulative: 5.7 ± 2.5 mL
[3]; 5 mg/kg p.o., 3 hours
  Potassium ion, Cumulative: .16 ± .09 mEq
  Sodium ion, Cumulative: .39 ± .25 mEq
  Urine Volume, Cumulative: 9.5 ± 3.6 mL
[3]; 5 mg/kg p.o., 6 hours
  Potassium ion, Cumulative: .26 ± .12 mEq
  Sodium ion, Cumulative: .73 ± .32 mEq
  Urine Volume, Cumulative: 11.8 ± 3.9 mL
[3]; 15 mg/kg p.o., 1 hour
  Potassium ion, Cumulative: .04 ± .05 mEq
  Sodium ion, Cumulative: .12 ± .16 mEq
  Urine Volume, Cumulative: 5.7 ± 4.4 mL
[3]; 15 mg/kg p.o., 3 hours
  Potassium ion, Cumulative: .12 ± .06 mEq
  Sodium ion, Cumulative: .44 ± .20 mEq
  Urine Volume, Cumulative: 9.8 ± 3.2 mL
[3]; 15 mg/kg p.o., 6 hours
  Potassium ion, Cumulative: .20 ± .08 mEq
  Sodium ion, Cumulative: .68 ± .28 mEq
  Urine Volume, Cumulative: 11.7 ± 3.3 mL
[3]; 30 mg/kg p.o., 1 hour
  Potassium ion, Cumulative: .04 ± .03 mEq
  Sodium ion, Cumulative: .15 ± .12 mEq
  Urine Volume, Cumulative: 6.5 ± 2.3 mL
[3]; 30 mg/kg p.o., 3 hours
  Potassium ion, Cumulative: .15 ± .08 mEq
  Sodium ion, Cumulative: .79 ± .38 mEq
  Urine Volume, Cumulative: 10.5 ± 2.5 mL
[3]; 30 mg/kg p.o., 6 hours
  Potassium ion, Cumulative: .27 ± .06 mEq
  Sodium ion, Cumulative: 1.48 ± .24 mEq
  Urine Volume, Cumulative: 14.6 ± 1.4 mL
[3]; 30 mg/kg p.o., at 1 hour and 6 hours post-drug
  diuresis: significant (p<0.05) diuresis
[3]; 30 mg/kg p.o., at the 3 and 6 hour time periods
  natriuretic effect: significant natriuretic effect
[3]; following compound administration, p.o.
  kaliuretic effects: No significant kaliuretic effects were observed
[4]; Hip C2-5
  Mean % Abnormal Neurones, Hip C2-5: 1.78 ± 0.99%
[4]; Hip CA
  Mean % Abnormal Neurones, Hip CA: 16.76 ± 4.00%
[4]; Hip. Cortex
  Mean % Abnormal Neurones, Hip. Cortex: 2.41 ± 0.30%
[4]; Purk. cells
  Mean % Abnormal Neurones, Purk. cells: 2.22 ± 0.79%
[4]; Str. Cortex
  Mean % Abnormal Neurones, Str. Cortex: 2.01 ± 0.29%
[4]; Striatum
  Mean % Abnormal Neurones, Striatum: 1.54 ± 0.33%
[4]; Thalamus
  Mean % Abnormal Neurones, Thalamus: 0.64 ± 0.25%
[1]; Mus musculus, po, 5 mg/kg p.o., 15 min pre-treatment, % of total transit induced by Ba^+2, read-out: % Inhibition of Ba^+2 effect
  inhibition at 5 mg/kg: 14%
[1]; Mus musculus, po, 25 mg/kg p.o., 15 min pre-treatment, % of total transit induced by Ba^+2, read-out: % Inhibition of Ba^+2 effect
  inhibition at 25 mg/kg: -30.4%
[1]; Mus musculus, po, 60 mg/kg p.o., 15 min pre-treatment, % of total transit induced by Ba^+2, read-out: % Inhibition of Ba^+2 effect
  inhibition at 60 mg/kg: -31.7%
[5]; schedule A (15 minutes), n=20
  % clonic seizures: 85.0%
  % death: 50.0%
  % tonic seizures: 85.0%
[5]; schedule B (60 minutes), n=25
  % clonic seizures: 88.0%
  % death: 36.0%
  % tonic seizures: 64.0%
[5]; [8]
  % clonic seizures: 66.7%
  % death: 45.0%
  % tonic seizures: 41.7%
[6]; 5 mg/kg p.o. b.i.d. 3 days and 1 h pre-ischemia
  mean % abnormal neurones: 3.00±1.00%
[6]; 10 mg/kg p.o. 3 days and 1 h pre-ischemia
  mean % abnormal neurones: 22.00±3.10%
[6]; 250 mg/kg i.p. 15 min pre-ischemia
  mean % abnormal neurones: 27.20±4.30%
[6]; 500 mg/kg i.p. 15 min post-ischemia
  mean % abnormal neurones: 41.70±4.60%
[6]; 500 mg/kg i.p. 15 min pre-ischemia
  mean % abnormal neurones: 26.90±3.30%
[7]; 5 mg/kg p.o.
  inhibition at 5 mg/kg: -19.3%
[7]; 25 mg/kg p.o.
  inhibition at 25 mg/kg: -28.7%
[7]; 60 mg/kg p.o.
  inhibition at 60 mg/kg: -16.1%
